Experimental data taken from patent US20240209022A1, “NOVEL PEPTIDE HAVING ANTI-INFLAMMATORY AND TISSUE REGENERATIVE ACTIONS” (KOREA RESEARCH INSTITUTE OF BIOSCIENCE AND BIOTECHNOLOGY, priority 2020, published 2024).

Legend:
[1] = test system: animal model of muscle atrophy/muscle strength loss due to natural aging (geriatric sarcopenia); assay: Geriatric sarcopenia model (natural aging): muscle strength and muscle mass; assay type: in vivo, C57BL/6 mice; conditions: vs PBS buffer group; for grip strength: 11th week of administration, oral 0.2 μg/150 μL; for GC (gastrocnemius) muscle weight / TA (tibialis anterior) muscle weight / soleus muscle weight: after the experiment; for muscle strength (grip strength): oral
Description: The efficacy of the peptides was verified using an animal model of muscle atrophy/muscle strength loss due to natural aging (geriatric sarcopenia). At the time of administration of Amuc_1409, 80 to 83-week old C57BL/6 male mice were used. Amuc_1409 was dissolved in PBS buffer at a concentration of 2.4 μM and then orally administered to the mice by 150 μL per animal at the same time once a day for 32 weeks. To the control group, PBS buffer was orally administered in the same manner. At the 16th week of Amuc_1409 administration, aged mice were allowed to hold the wire net connected to the muscle strength probe of the grip strength meter with all four paws, and then the tail was carefully pulled backward to measure the maximum grip strength at the moment at which the mice held onto the wire net. For muscle weight, after administration, the gastrocnemius (GC), soleus, and tibialis anterior (TA) muscles from both hind paws of the aged mice of each group were carefully separated to avoid damage, and each weight was measured. Muscle weight versus body weight was calculated by correcting with the body weight of the mouse. After the end of the experiment, in order to analyze the size of muscle fibers in each group, TA muscles were fixed in 10% formalin, and frozen section samples (8 μm) were prepared to prepare slides. The prepared slides were washed with PBS buffer solution, permeabilized with 0.5% Triton X-100, blocked, and treated with primary antibody (anti-laminin). After 24 hours, a fluorescent secondary antibody (Alexa Fluor 488 Goat anti-rabbit IgG) was applied, and the slides were finally treated with DAPI for nuclear staining. The immunostained slides were subjected to photographing of muscle tissue using a confocal microscope. Using image analysis software (ImageInside), the distribution of cross-sectional area of muscle fibers was calculated for each size from a minimum of 500 μm^2 or less to 3500 μm^2 or more. Meanwhile, in order to examine the efficacy of Amuc_1409 as well as its fragments, 82- to 83-week-old C57BL/6 male mice were used. PEP001 was dissolved in PBS buffer at a concentration of 2.4 μM and then orally administered to the mice by 150 μL per animal at the same time once a day for 10 weeks. To the control group, PBS buffer was orally administered in the same manner. At the 10th week of PEP001 administration, the maximum grip strength and muscle weight were calculated in the same manner as the measurement in Amuc_1409. At the end of the experiment, a part of the GC muscle excised was homogenized with Trizol to extract RNA. Reverse transcriptase was added to the obtained RNA and reacted to synthesize cDNA, and SYBR Green and primers were added to perform quantitative real-time PCR (RT-qPCR). The gene expression level of insulin-like growth factor (IGF-1) involved in protein synthesis in muscle cells was then quantified. In addition, in order to confirm the efficacy of the novel tetrapeptides and tripeptides PEP006 to PEP013, the improvement efficacy on geriatric sarcopenia was examined using naturally aged 76 to 78-week old female C57BL/6J mice. For an additional 12 weeks, the novel tetrapeptides PEP006, PEP007, PEP008, PEP009, and PEP010 or novel tripeptides PEP011, PEP012, and PEP013 were each dissolved in PBS buffer at a concentration of 0.2 μg/150 μL and then orally administered to the naturally aged mice by 150 μL per mouse at the same time until the end of the test. To the control group, PBS buffer was orally administered in the same manner. For all animals, general symptoms were observed immediately before administration at the start of administration, and grip strength was measured at the 11th week of administration in order to analyze muscle strength attenuation. […]

[2] = test system: LPS-induced cognitive and memory disorder mice; assay: Novel object recognition test in LPS-induced cognitive/memory disorder model; assay type: in vivo, C57BL/6J mice; conditions: oral; LPS 250 μg/kg/day for 7 days; vs control group
Description: LPS was intraperitoneally injected to C57BL/6J male mice at 250 μg/kg/day daily for 7 days to induce cognitive and memory disorders. Amuc_1409, a protein derived from Akkermansia muciniphila, was orally administered to the mice by 5 μg daily from one week before LPS administration until the cognitive and memory test was performed. PEP002, PEP003, PEP004, or PEP005 was dissolved in PBS buffer at a concentration of 2.4 μM and then orally administered to the mice by 150 μL per animal daily at the same time once a day from 3 days before LPS administration until the cognitive and memory test was performed. To the control group (vehicle), PBS was orally administered in the same volume.
In order to test the effect of improving cognitive function in mice with cognitive and memory disorder administered with Amuc_1409 or PEP002, PEP003, PEP004, or PEP005, a novel object recognition test was performed. When the object seen 24 hours ago and a novel object were provided, the exploration time and the number of explorations for the novel object were measured to test cognition and memory.

[3] = test system: naturally aged mice; assay: NORT and Y-maze alteration test in naturally aged mice; assay type: in vivo, C57BL6/J mice; conditions: oral; for spontaneous alteration, Y-maze alteration test: 0.2 μg daily 5 days a week for 8 weeks, vs PBS buffer
Description: An experiment was conducted to verify the efficacy of the peptides of the present invention in an animal model of cognitive/memory disorder due to natural aging.
Amuc_1409 was orally administered to 16.5-month-old male mice by 4.5 μg daily 5 days a week for 8 weeks, and PEP002, PEP003, PEP004, or PEP005 was dissolved in PBS buffer at a concentration of 2.4 μM and then orally administered to 16-month-old male mice by 150 μL per animal at the same time once a day for 3 weeks. To the control group (vehicle), PBS was orally administered in the same volume.
In the case of the groups administered with the novel tetrapeptides and tripeptides (PEP006 to PEP013), each peptide was orally administered to 19-month-old female C57BL6/J mice by 0.2 μg daily 5 days a week for 8 weeks. At this time, the peptide was dissolved in PBS buffer and orally administered to the mice at 0.2 μg/150 μL per animal at the same time once a day. To the vehicle group, PBS was orally administered in the same volume. At this time, 4-month-old female C57BL6/J mice were used as a young control group.
A novel object recognition test (NORT) was performed to test the effect of improving cognitive function in naturally aged mice. When the object seen 24 hours ago and a novel object were provided, the exploration time and the number of explorations for the novel object were measured to test cognition and memory. In addition, a Y-maze alteration test was performed to confirm the effect of enhancing spatial perception and memory. In the Y-maze alteration test, spontaneous alteration (%) was evaluated by measuring the order of entering each Y-shaped maze (A, B and C). […] The spontaneous alteration was calculated and expressed as the total number of alterations/(total number of entries−2)×100.

Molecule	grip strength [1]	GC (gastrocnemius) muscle weight [1]	TA (tibialis anterior) muscle weight [1]	soleus muscle weight [1]	memory and cognitive function, novel object recognition test [2]	further results
AGAY (PEP006)	significantly increased	tended to increase	tended to increase	tended to increase		
AGS [PEP012]	significantly increased	tended to increase	tended to increase	tended to increase		
AIS [PEP013]	significantly increased	tended to increase	tended to increase	tended to increase		
AQS [PEP011]	significantly increased	tended to increase	tended to increase	tended to increase		
AVS (AVSSIKGAY) [PEP004]					improved	
AVSSI (PEP002)					improved	
AVSSIKGAY (PEP001)		significantly increased	increased	significantly increased		muscle strength (grip strength) ([1]; 10th week of administration): significantly increased; IGF-1 gene expression in GC muscle ([1]; 10th week of administration): tended to increase
GAY [PEP005]					improved	
IGAY (PEP008)	significantly increased	tended to increase	tended to increase	tended to increase		spontaneous alteration, Y-maze alteration test [3]: significantly improved
KGAY (PEP003)					improved	
RGAY (PEP007)	increased to a significant level	tended to increase	tended to increase	increased to a significant level		
SGAY (PEP009)	significantly increased	tended to increase	tended to increase	tended to increase		
VGAY (PEP010)	significantly increased	tended to increase	tended to increase	tended to increase		spontaneous alteration, Y-maze alteration test [3]: significantly improved
Amuc_1409: SEQ ID NO: 15, functional fragment obtained by eliminating the leader sequence from SEQ ID NO: 14; protein derived from Akkermansia muciniphila (protein, Amuc_1409_fragment, protein derived from Akkermansia muciniphila) IPESSVPAAAVSSIKGAYPNAGPIEWDSEMHGMERIYEAEFRINGFQFDVKIAPDGKIVRIKEEIAASSLPEAVRASVLKRYPGCRIKEAEKITEGELVRYKVEVADSRDDYDVLIAPDGNILHVDR		increased	increased	significantly increased	improved	muscle strength (grip strength) ([1]; 16th week of administration): significantly increased; muscle fibers with a size of 2,000 μm^2 or more in the TA muscle ([1]; laminin immunostaining): significantly increased; number of muscle fibers with a cross-sectional size of 500 μm^2 or less in the TA muscle ([1]; laminin immunostaining): decreased; average size of all muscle fibers [1]: significantly increased; cognition and memory, novel object recognition test ([3]; naturally aged mice, vs control group): significantly improved or tended to be improved
